The record followed here is patent publication US20090170838A1, “Bicycloheteroaryl compounds as P2X7 modulators and uses thereof” (Renovis, Inc., priority 2005, published 2009).

The structures appear in SMILES notation.

For test [1], the target named is T1, P2X7 receptor (Homo sapiens, UniProt Q99572).
T1 construct: host or cells: THP-1 cells differentiated with LPS and IFN-γ
T1 sequence (Q99572 1-595): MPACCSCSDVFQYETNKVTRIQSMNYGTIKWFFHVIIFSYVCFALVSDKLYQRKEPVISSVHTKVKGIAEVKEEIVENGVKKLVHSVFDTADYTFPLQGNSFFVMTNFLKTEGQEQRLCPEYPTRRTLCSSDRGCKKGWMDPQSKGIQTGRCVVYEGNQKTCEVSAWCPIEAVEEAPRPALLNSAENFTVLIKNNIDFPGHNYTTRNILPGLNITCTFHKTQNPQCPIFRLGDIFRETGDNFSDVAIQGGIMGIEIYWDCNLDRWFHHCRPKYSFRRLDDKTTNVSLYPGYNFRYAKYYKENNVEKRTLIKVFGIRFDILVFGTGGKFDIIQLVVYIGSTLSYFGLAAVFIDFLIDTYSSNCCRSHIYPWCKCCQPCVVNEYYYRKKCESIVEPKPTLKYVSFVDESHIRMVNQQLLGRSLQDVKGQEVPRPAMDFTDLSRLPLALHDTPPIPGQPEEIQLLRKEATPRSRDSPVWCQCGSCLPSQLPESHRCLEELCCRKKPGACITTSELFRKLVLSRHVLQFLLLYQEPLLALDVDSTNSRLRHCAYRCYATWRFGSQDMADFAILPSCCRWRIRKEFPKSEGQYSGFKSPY
The test can be described thus: IL-1β release assay (BzATP-stimulated, LPS/IFN-γ differentiated THP-1 cells, ELISA). In kind it is cell-based. The settings on record: for inhibition at 0.1 µM: at 0.1 μM (asterisk symbols); for inhibition at 0.3 µM: at 0.3 μM (plus symbols). Put shortly:
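THP-1 cells were differentiated 16 h with LPS and IFN-γ (100 ng/mL each), then primed 2 h with fresh LPS. Compound pretreatment lasted 30 min, followed by 250 uM BzATP for 45 min. Supernatant IL-1β was measured by ELISA, and percent inhibition was calculated from background-adjusted levels.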

Test [2] addresses T1, P2X7 receptor. The test can be described thus: Pore formation (Yo-Pro 1 uptake, BzATP-stimulated differentiated THP-1 cells). Type of test: cell-based. To be noted: for inhibition at 0.3 µM: at 0.3 μM (plus symbols); for inhibition at 0.1 µM: at 0.1 μM (asterisk symbols). The method, then: THP-1 cells (ATCC Cat # 285-IF-100) are plated in 96 well plates at a concentration of 200,000 cells per well and allowed to differentiate in RPMI-1640 media (ATCC Cat # 30-2001) containing 10% FBS, 100 IU/mL penicillin, 100 ug/mL streptomycin, 100 ng/mL LPS and 100 ng/mL IFN-γ for 16 hours. Following differentiation, the cells are pretreated with the compound of interest at the appropriate concentration for 30 minutes in RPMI-1640 media containing 100 IU/mL penicillin, 100 ug/mL streptomycin. The pretreatment media is then replaced with assay buffer (20 mM HEPES, 10 mM D-glucose, 118 mM NMDG, 5 mM KCl, 0.4 mM CaCl2) containing 5 uM Yo-Pro 1 (Molecular Probes Cat # Y3603) and the compound of interest at the appropriate concentration and the cells are incubated for an additional 10 minutes. 2′,3′-O-(4-benzoylbenzoyl)-adenosine 5′-triphosphate (Sigma Aldrich Cat# B6396) is then added to a final concentration of 40 uM and fluoroscence readings measured at 491/509 excitation/emission every minute for 50 minutes using a Tecan Safire plate reader. During this time temperature is maintained at of 37° C. Background adjusted fluorescence levels between drug treated and non-treated cells are used to calculate the percent inhibition.

`O=C(CC12CC3CC(CC(C3)C1)C2)Nc1cccc2c(=O)[nH]ccc12` [Compound 804] came in with an inhibition at 0.1 µM on P2X7 receptor [1] not below 75%. Moreover, the inhibition at 0.3 µM on P2X7 receptor [2] is not below 75%.

For the compound `O=C(CC12CC3CC(CC(C3)C1)C2)Nc1cccc2c(=O)n(Cc3ccc4c(c3)OCCO4)ccc12` [Compound 707], the inhibition at 0.3 µM on P2X7 receptor [1] and at P2X7 receptor [2] was not below 75% throughout.

`O=C(CC12CC3CC(CC(C3)C1)C2)Nc1cccc2c1CCN(Cc1ccc(C(F)(F)F)cc1)C2=O` [Compound 727]: the inhibition at 0.3 µM on P2X7 receptor [1] and on P2X7 receptor [2] was not below 75% throughout.

`O=C(CC12CC3CC(CC(C3)C1)C2)Nc1cccc2c(=O)n(CCN3CCOCC3)ccc12` [Compound 780]: the inhibition at 0.1 µM against P2X7 receptor [1] and on P2X7 receptor [2] was not below 75% in each case.

For the compound `O=C(CC12CC3CC(CC(C3)C1)C2)Nc1cccc2c1CCN(Cc1ccccc1)C2=O` [Compound 702, 2-Adamantan-1-yl-N-(2-benzyl-1-oxo-1,2,3,4-tetrahydro-isoquinolin-5-yl)-acetamide], the inhibition at 0.3 µM on P2X7 receptor [1] and on P2X7 receptor [2] was not below 75% throughout.

Consider `CC12CC3CC(C)(C1)CC(CC(=O)Nc1cccc4c(=O)n(Cc5ccccc5)ccc14)(C3)C2` [Compound 751], for which the inhibition at 0.1 µM against P2X7 receptor [1] and against P2X7 receptor [2] was 50 to 75% in each case.

`O=C(CC12CC3CC(CC(C3)C1)C2)Nc1cccc2c(=O)n(CC3CCOCC3)ccc12` [Compound 717]: the inhibition at 0.3 µM at P2X7 receptor [1] and at P2X7 receptor [2] was not below 75% in each case.

With `O=C(CC12CC3CC(CC(C3)C1)C2)Nc1cccc2c(=O)n(CC3CCCO3)ccc12` (stereo not shown) [Compound 709], the inhibition at 0.3 µM at P2X7 receptor [1] and on P2X7 receptor [2] was not below 75% each time.

For orientation: inhibition means the relative decrease from the control value, in per cent.
